# Results: PubChem BioAssay (NCI)
# Several values for one entry are separate records, joined by “and”; a condition that tells them apart may be missing. Identical values can stand only once.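 These data come from cells grown in 96-well plates and exposed to compound for 48 hours at five concentrations. Here, GI50 denotes the concentration required for 50% inhibition of growth. TGI: total growth inhibition.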 Where a SMILES comes first, the peptide text is derived from it. [ ]: non-standard residue; d: D form. The star is where a group is joined. ξ: configuration not given here. ξF = NC(Cc1ccccc1)C(=O)O; Cbz = O=C(OCc1ccccc1)*; Aib = CC(C)(N)C(=O)O
# What was measured:
# Assay in all cases: DTP human tumour cell line panel, 48 h
# OVCAR-4 ovarian = system: OVCAR-4 ovarian
# OVCAR-3 ovarian = system: OVCAR-3 ovarian
# MDA-MB-231 breast = system: MDA-MB-231 breast
# IGROV1 ovarian = system: IGROV1 ovarian
# BT-549 breast = system: BT-549 breast
# SF-539 CNS = system: SF-539 CNS
# PC-3 prostate = system: PC-3 prostate
# HCT-15 colon = system: HCT-15 colon
# HOP-62 NSCLC = system: HOP-62 NSCLC
# KM12 colon = system: KM12 colon
SMILES,TGI (OVCAR-4 ovarian) [µM],TGI (OVCAR-3 ovarian) [µM],TGI (MDA-MB-231 breast) [µM],TGI (IGROV1 ovarian) [µM],TGI (BT-549 breast) [µM],TGI (SF-539 CNS) [µM],TGI (PC-3 prostate),TGI (HCT-15 colon),TGI (HOP-62 NSCLC),TGI (KM12 colon) [µM],GI50 (OVCAR-3 ovarian) [µM],GI50 (MDA-MB-231 breast) [µM],GI50 (IGROV1 ovarian) [µM],GI50 (BT-549 breast) [µM],GI50 (SF-539 CNS) [µM],GI50 (PC-3 prostate) [µM],GI50 (HCT-15 colon) [µM],GI50 (HOP-62 NSCLC) [µM],GI50 (KM12 colon) [µM]
CN1CC2=C(OC(N)=C(C#N)C2c2cccs2)/C(=C/c2cccs2)C1 (stereo not drawn),39.4,56.5,> 100,> 65.8,> 100,> 100,> 60.5 µM,> 100 µM,51.9 µM,> 78.9,–,–,–,–,–,–,–,–,–
Cn1ccnc1Sc1ccc(/C=N/NC(=O)c2ccccc2O)cc1[N+](=O)[O-],> 100,> 100,> 100,> 100,> 100,> 100,> 100 µM,> 100 µM,> 100 µM,> 100,–,–,–,–,–,–,–,–,–
COc1ccc(CCn2cnc3ccccc32)cc1,> 100,> 100,> 100,> 100,> 100,> 100,> 100 µM,> 100 µM,> 100 µM,> 100,–,–,–,–,–,–,–,–,–
CC(=O)Oc1ccc(/C=C/C(=O)O[C@@H](C)[C@H](C)OC(=O)/C=C/c2ccc(OC(C)=O)c(OC(C)=O)c2)cc1OC(C)=O,> 100,51.6,> 100,> 100,89.2,> 100,> 100 µM,33.1 µM,56.3 µM,78.8,–,–,–,–,–,–,–,–,–
COC(=O)Cc1ccc2c(c1)Sc1ccc(CC(=O)OC)cc1N2C,> 100,> 100,> 100,> 100,91.7,> 100,> 100 µM,> 92.6 µM,> 100 µM,> 100,–,–,–,–,–,–,–,–,–
CC(C)(NC(=O)OCc1ccccc1)C(=O)NC(Cc1ccccc1)C(=O)O (stereo not drawn) (Cbz-[Aib]-[ξF]-OH),> 100,> 100,> 100,> 100,> 100,> 100,> 100 µM,> 100 µM,> 100 µM,> 100,–,–,–,–,–,–,–,–,–
Oc1ccc(/C=C\c2nnc(/C=C\c3ccc(O)c(O)c3)s2)cc1O,16,16.3,56.2,20.7,40.6,13.8,29.3 µM,16.9 µM,21.8 µM,18.9,–,–,–,–,–,–,–,–,–
CC(C)C[C@H](NC(=O)[C@H](Cc1cccc2ccccc12)NC(=O)N1CCOCC1)B(O)O,> 100,0.00171,0.00398,0.0485,–,0.00032,0.0191 µM and < 0.0235 µM,0.303 µM and 1.76 µM,0.0137 µM and < 0.018 µM,0.00376,0.000519,0.00188,0.00408,0.00039,0.000154,0.00473,0.0363,0.00383,0.00149
COc1ccc2c(c1)OC(c1cccnc1)C(c1ccccc1)C2=O (stereo not drawn),> 100,> 100,> 100,> 100,> 100,> 100,> 100 µM,> 100 µM,> 100 µM,> 100,–,–,–,–,–,–,–,–,–
CC(C)/C(Cl)=N/OC(=O)Nc1ccc(F)c(Cl)c1,24.3,9.11,30.7,28.4,9.98,20.9,29.8 µM,4.16 µM,32.8 µM,30.6,–,–,–,–,–,–,–,–,–
COC(=O)/C=C/c1ccccc1N=[S@](C)(=O)c1ccc(C)cc1,> 100,55.8,94.4,> 100,> 100,> 100,> 100 µM,> 100 µM,> 100 µM,> 100,–,–,–,–,–,–,–,–,–
Cc1cnoc1NC1=CC(=O)C(=O)c2ccccc21,> 100,> 100,> 100,> 100,> 100,58.2,> 100 µM,> 100 µM,> 100 µM,> 100,–,–,–,–,–,–,–,–,–
Cc1cc2c(cc1Cl)Sc1nnc(Nc3ccccc3)n1S2(=O)=O,32,7.1,49.9,54.6,34,14.2,22.1 µM,28.9 µM,15 µM,57.5,–,–,–,–,–,–,–,–,–
CCCCOC(=O)C(=O)C(CCC(=O)c1ccc(C)cc1)C(=O)C=C(C)C (stereo not drawn),> 100,> 100,> 100,> 100,> 100,> 100,> 100 µM,> 100 µM,> 100 µM,> 100,–,–,–,–,–,–,–,–,–
CC(C)CCCC(C)[C@H]1CCC2[C@@H]3CCC4Cc5nc6c(nc5C[C@]4(C)C3CC[C@@]21C)CC1CC[C@@H]2C(C[C@@H](O)[C@@]3(C)C2C[C@@H]2OC4(CCC(C)CO4)C(C)[C@@H]23)[C@@]1(C)C6 (stereo partly drawn),> 100,> 100,> 100,> 100,> 100,> 100,> 100 µM,> 100 µM,> 100 µM,> 100,–,–,–,–,–,–,–,–,–
Cc1ccc(C(=O)N(C2CCCCC2)C2CCCCC2)cc1N=NN(C)C,24,19.2,25.7,32.4,26.8,37.2,22.2 µM,27.1 µM,25.2 µM,18.7,–,–,–,–,–,–,–,–,–
